Test results reported in ChEMBL document CHEMBL1128077, “6,3'-Dinitroflavone, a novel high affinity ligand for the benzodiazepine receptor with potent anxiolytic properties” (Bioorg Med Chem Lett, 1995).

Biological target: GABA-A receptor; anion channel
Assay: Inhibition of [3H]flunitrazepam binding to GABA-A central benzodiazepine receptor of bovine cerebral cortical membranes
Parameters: species or system Bos taurus

Compound: O=c1cc(-c2cccc([N+](=O)[O-])c2)oc2ccc([N+](=O)[O-])cc12
- Ki: 0.012 µM

Compound: O=c1cc(-c2ccc([N+](=O)[O-])cc2)oc2ccc([N+](=O)[O-])cc12
- Ki: 17 µM
